Reference: US20260132141A1, “PROTEIN PHOSPHATASE 2A ACTIVATORS” (University of Florida Research Foundation, Incorporated, priority 2022, published 2026)

Legend:
PP2ACα = PP2ACα (Homo sapiens, UniProt P67775); assay: surface plasmon resonance (SPR) binding to catalytic subunit PP2ACα; conditions: no KD could be calculated
Source text: FIGS. 12A-12E depict surface plasmon resonance (SPR) analysis of the binding of PPA24, PPA27, and NSC49L to catalytic subunit, PP2ACα. FIG. 12A depicts surface plasmon resonance (SPR) studies of PPA24 binding to PP2ACα. FIG. 12B depicts surface plasmon resonance (SPR) studies of PPA27 binding to PP2ACα. FIG. 12C depicts the dissociation constant (KD) of PPA24 binding to PP2ACα. FIG. 12D depicts the dissociation constant (KD) of PPA27 binding to PP2ACα. FIG. 12E depicts surface plasmon resonance (SPR) studies of 100 μM of NSC49L binding to PP2ACα.
Thus, the binding affinity can be in the order of PPA24>PPA27>NSC49L>iHAP1.

[1] = tested on: normal keratinocyte (HaCaT) cells; assay: cell viability screen in noncancerous HaCaT cells; assay type: cell-based
Source text: FIGS. 14A-14C depict cell viability screen of PPA24, PPA27, iHAP1, and NSC49L in normal keratinocyte (HaCaT) (FIG. 14A) and epithelial (FHC) (FIG. 14B) cells, where the compounds were able to showcase selectivity to cancerous cells vs. noncancerous cells. FIG. 14C depicts IC50 concentrations of the compounds in the cells. Analyses were done using GraphPad Prism 7.0 Software.
The compounds PPA24, PPA27, iHAP1, and NSC49L were screened in noncancerous cell lines to observe the selectivity these compounds have towards cancerous cells by assessing the differences in IC50 concentrations.

Sequence of PP2ACα (P67775 whole entry): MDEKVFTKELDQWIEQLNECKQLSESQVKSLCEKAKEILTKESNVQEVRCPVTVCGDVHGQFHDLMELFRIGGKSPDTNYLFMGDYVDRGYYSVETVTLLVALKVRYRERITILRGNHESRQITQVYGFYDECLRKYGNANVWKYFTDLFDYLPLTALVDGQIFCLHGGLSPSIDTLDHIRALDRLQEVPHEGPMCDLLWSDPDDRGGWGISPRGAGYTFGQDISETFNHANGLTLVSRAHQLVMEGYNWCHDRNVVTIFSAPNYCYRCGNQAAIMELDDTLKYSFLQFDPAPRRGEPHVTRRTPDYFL

SMILES | SPR binding signal to PP2ACα (PP2ACα) | selectivity: cell viability in HaCaT cells versus CRC cells [1]
COc1ccc(C(=O)N2c3ccccc3Sc3ccc(Cl)cc32)cc1 [iHAP1] | did not show a clear signal even at high concentrations | do not appear to have a significant difference
ClC/C=C/C[N+]12CN3CN(CN(C3)C1)C2.[Cl-] [NSC49L] | only had a binding signal at 100 μM | some selectivity towards cancerous cells
